Test results reported in patent publication US7074822B2, “Alkyl carbamate-substituted β-lactones, process for their preparation, and pharmaceutical compositions containing them” (Solvay Pharmaceuticals GmbH, priority 2004, dated 2006).

Molecular target: T1, porcine pancreatic lipase (Sus scrofa, UniProt P00591)
T1 construct: lipase standard LS7 in accordance with the rules of the “Fédération Internationale Pharmaceutique” (=FIP) (porcine pancreatic lipase, 36,700 FIP units/g); host or cells: porcine pancreas
T1 sequence (P00591 1-450): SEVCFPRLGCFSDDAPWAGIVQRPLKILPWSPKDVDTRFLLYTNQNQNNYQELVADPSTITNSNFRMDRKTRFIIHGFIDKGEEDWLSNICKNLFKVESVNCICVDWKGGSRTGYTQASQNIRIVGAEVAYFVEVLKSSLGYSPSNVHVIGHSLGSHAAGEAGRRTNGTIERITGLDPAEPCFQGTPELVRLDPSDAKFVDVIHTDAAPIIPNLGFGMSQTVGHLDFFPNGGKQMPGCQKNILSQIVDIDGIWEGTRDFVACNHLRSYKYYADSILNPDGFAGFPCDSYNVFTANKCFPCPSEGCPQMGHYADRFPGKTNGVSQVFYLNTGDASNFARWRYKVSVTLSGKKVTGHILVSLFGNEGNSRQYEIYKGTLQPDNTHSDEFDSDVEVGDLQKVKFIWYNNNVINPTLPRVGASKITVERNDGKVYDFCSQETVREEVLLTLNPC
Experiment: Olive oil test: inhibition of porcine pancreatic lipase with respect to triglycerides in olive oil (pH-stat titration)
Format: biochemical
Settings: substrate olive oil emulsion, pH 9.0, 37.0° C., 10 minutes pre-incubation in ice bath; read-out: IC50, porcine pancreatic lipase-inhibiting action in vitro with respect to triglycerides in olive oil
Method: In a heterogeneous reaction, the inhibition of the lipolytic action of porcine pancreatic lipase was determined under the influence of the test substances of Formula I with respect to the triglycerides contained in the test substrate olive oil. The fatty acids released by the lipase were titrated with sodium hydroxide solution to pH 9.0.
(§1) The reagents given below were prepared:
A. Gum Arabic Solution 10% (m/V)
200 g gum arabic (Acaciae gummi in accordance with the specifications of the German Pharmacopeia (=DAB)/European Pharmacopeia (=Ph.Eur.) was dissolved in 2000 ml ultrapure water with stirring and if necessary centrifugation. The solution was stored at −20° C. in plastic vessels of capacity of 250 ml. The amount required per day was thawed as required.
B. Sodium Taurocholate Solution 8% (m/V)
8 g sodium taurocholate (FIP) was dissolved in 100 ml ultrapure water.
60.6 mg Tris(hydroxymethyl)aminomethane p.a. (Merck, No. 8382) and 234 mg sodium chloride (p.a.) were dissolved in 100 ml ultrapure water.
D. 0.1 N Sodium Hydroxide Solution […]
1 ml lipase reference suspension was incubated with the respective amount of inhibitor solution for 10 minutes in an ice bath. […] The sodium hydroxide consumption between the 1st and the 5th minute was evaluated. […]

`CCCCCC[C@@H]1C(=O)O[C@H]1CCCCCOC(=O)Nc1ccc(Oc2ccccc2)cc1` (relative stereo) [Example 1, trans-(3-hexyl-4-oxo-oxetan-2-yl)-pentyl-(phenoxyphenyl)-carbamate] showed an IC50 of 17 nM.

Molecular target: T1, porcine pancreatic lipase
Experiment: p-nitrophenyl palmitate (pNpp) test: inhibition of lipolytic action of porcine pancreatic lipase in vitro
Format: biochemical
Settings: substrate p-nitrophenyl palmitate, 37° C., absorbance at 405 nm; read-out: IC50, porcine pancreatic lipase-inhibiting action in vitro with respect to pNpp
Method: 1. p-nitrophenyl Palmitate Test
In this test the inhibition of the lipolytic action of porcine pancreatic lipase with respect to the test substrate p-nitrophenyl palmitate(=pNpp) under the influence of the test substances of Formula I was determined. Therein, the change in the relative absorbance of the investigated solutions caused by the lipolytic release of p-nitrophenol from pNpp was measured.
as §1
To prepare a “solution A”, 45 mg pNpp was dissolved in 15 ml isopropanol by sonication with ultrasound. To prepare a “solution B”, 558 mg Na-deoxycholate dry substance and 67.5 mg gum arabic were dissolved in 135 ml 0.05 M sodium phosphate buffer (pH=8.0). 15 ml “solution A” was injected into 135 ml ice-cold “solution B” in […] of 1.25 ml with an Eppendorf hand dispenser with stirring at 400 rpm at the highest possible rate. The initial absorbance E1 when determining the blank reading was less than 0.250 U each time.
B. Sodium Chloride Solution 1% (mN)
10 g sodium chloride (NaCl, p.a.) was dissolved in 1000 ml ultrapure water.
C. Lipase Standard Solution (50 FIP units/ml)
120.8 mg lipase standard LS7 in accordance with the rules of the “Fédération Internationale Pharmaceutique” (=FIP) (porcine pancreatic lipase, 36,700 FIP units/g) was dissolved in 50 ml ice-cold sodium chloride solution (B) and filtered through a 0.2 μm syringe filter. 20 ml of the filtrate was diluted with […] sodium chloride solution (B) (corresponding to 50 FIP units/ml).
D. Lipase Calibration Solutions (10–20–30–40 FIP units/ml)
In each case 2–4–6–8 ml lipase standard solution (C) was made up to 10 ml with sodium chloride solution (B) and stored in an ice bath.
E. Lipase Stock Solution (40 FIP units/ml)
8 ml lipase standard solution was made up to 10 ml with sodium chloride solution (B) and stored in an ice bath.
The lipase-inhibitory compounds of Formula I were dissolved in DMSO. A dilution series of 100–0.1 nmol/ml was produced from this stock solution. 100 μl of these dilutions were used in the test. The dilutions were adapted such that the maximum residual activity of the lipase was >90%.
Measurement was effected at 37° C., and the absorbances were measured at a wavelength of 405 nm. The photometric measuring station comprised a photometer and an agitator (from Eppendorf). The photometer was adjusted to 0 U with water. At the start and end of the investigation series, in each case eight blank readings and one lipase calibration series were measured. For the blank readings, in each case 1 ml substrate solution was mixed with 100 μl DMSO, the mixture was shaken for 5 seconds and kept at a controlled temperature for 5 minutes. Then 100 μl sodium chloride solution (B) were added thereto by pipette and the mixture was shaken for a further 5 seconds. After 2 minutes, the increase in absorbance was detected for 4 minutes. The absorbance starting value E1 when determining the blank readings was in each case less than 0.250 U.
For the calibration, 1 ml substrate solution was placed in each of eight cuvettes, mixed with 100 μl DMSO, shaken for 5 seconds and kept at a controlled temperature for 5 minutes. The reaction was started with 100 μl calibration solution. After 2 minutes, the kinetics were detected for 4 minutes. Each concentration was measured twice.
For measuring the inhibitor solutions, 1 ml substrate solution was placed in each of eight cuvettes, mixed with 100 μl inhibitor solution, shaken for 5 seconds and then kept at a controlled temperature for 5 minutes. The reaction was started with 100 μl lipase stock solution. After 2 minutes, the kinetics were detected for 4 minutes. The inhibitor solutions and the lipase standard solution were each prepared immediately before the start of the investigation series. […]

First: CCCCCCC1C(=O)OC1CCCCCOC(=O)NCCc1ccccc1 (stereo not shown) [Example 11]
Second: CCCCCCC1C(=O)OC1CCCCCOC(=O)NCc1ccccc1 (stereo not shown) [Example 8]
The IC50 of the first is 6.7-fold lower: 28 nM for the first, 187 nM for the second.

First: CCCCCCC1C(=O)OC1CCCCCOC(=O)NC(C)C (mixture of isomers) [Example 3, cis/trans-5-(3-hexyl-4-oxo-oxetan-2-yl)pentyl-isopropyl carbamate]
Second: CCCCCCC1C(=O)OC1CCCCCOC(=O)Nc1ccccc1 (mixture of isomers) [Example 2, cis/trans-5-(3-hexyl-4-oxo-oxetan-2-yl)pentyl-phenyl carbamate]
The IC50 of the first is 1.9-fold higher: 88 nM for the first, 47 nM for the second.

Going from `CCCCCC[C@@H]1C(=O)O[C@H]1CCCCCOC(=O)Nc1ccc(Oc2ccccc2)cc1` [Example 6, (2S,3S)-5-(3-hexyl-4-oxo-oxetan-2-yl)-pentyl-(4-phenoxyphenyl)-carbamate] to `CCCCCCC1C(=O)OC1CCCCCOC(=O)Nc1ccc(OCC)cc1` (stereo not shown) [Example 9], the IC50 falls from 113 nM to 67 nM (1.7-fold). The second is the more potent here.

Going from `CCCCCCC1C(=O)OC1CCCCCOC(=O)NC(=O)c1ccccc1` (stereo not shown) [Example 10] to `CCCCCCC1C(=O)OC1CCCOC(=O)Nc1ccccc1` (racemic) [Example 7], the IC50 falls from 177 nM to 107 nM (1.7-fold).

First: CCCCCCC1C(=O)OC1CCCCCOC(=O)Nc1ccc(Cl)c(Cl)c1 (stereo not shown) [Example 13]
Second: CCCCCC[C@@H]1C(=O)O[C@H]1CCCCCOC(=O)Nc1ccc(Oc2ccccc2)cc1 (relative stereo) [Example 1, trans-(3-hexyl-4-oxo-oxetan-2-yl)-pentyl-(phenoxyphenyl)-carbamate]
The IC50 of the first is 3-fold higher: 319 nM for the first, 106 nM for the second.

System: pancreatic lipase
Experiment: Pancreatic lipase-inhibiting action of intermediates of Formula IVa (statement, no method given)
Format: biochemical
Settings: qualitative statement

`CCCCCCC1C(=O)OC1CCCCCOC1CCCCO1` (stereo not shown) [3-hexyl-4-{5[(tetrahydro-2H-pyran-2-yl)oxy]pentyl}oxetan-2-one] was tested, and the “action inhibiting pancreatic lipase” value was “exhibit an action inhibiting pancreatic lipase”.
For `CCCCCCC1C(=O)OC1CCCCCOCc1ccccc1` (stereo not shown) [3-hexyl-4-[5(benzyloxy)pentyl}]oxetan-2-one], the “action inhibiting pancreatic lipase” value was “exhibit an action inhibiting pancreatic lipase”.
